Laboratory results as given in patent publication US9340577B2, “HLA binding motifs and peptides and their uses” (priority 1992, dated 2016).
Entries after “also recorded” stand apart in the source; their conditions may differ. No end group written: not given here.

Assays:
[1] = target: HLA-A*0201 (HLA-A2.1) (Homo sapiens, UniProt P04439, D140Y/D185E/D98H/E176V/E277Q/G131W/G231S/I119V/I121R/I166T/I218V/L300P/L318F/N151K/N90K/P208A/P217A/Q86G/Q94H/R138H/R169H/T345S); assay: biochemical; format: binding
[2] = tested on: peptide-coated Jurkat A2/Kb target cells; parameters: species or system mice; details: mouse, in vivo
[3] = target: A2.1 HLA molecules (Homo sapiens, UniProt P04439, D140Y/D185E/D98H/E176V/E277Q/G131W/G231S/I119V/I121R/I166T/I218V/L300P/L318F/N151K/N90K/P208A/P217A/Q86G/Q94H/R138H/R169H/T345S); format: binding; parameters: A*0201 / A2.1 Binding / A2 Bind. / A2 / A2.1 (binding capacity): scale not given here
[4] = target: HLA-A1 (A*0101) (Homo sapiens, UniProt P04439, A114D/A174V/A182V/D101N/D185E/E176A/E190D/L180R/Q94H/R68K/S129P/T187R/V100A/V91M/W191G); assay: biochemical; format: binding
[5] = target: A*2601 (Homo sapiens, UniProt P04439, A114D/A173T/A270S/D101N/D185E/E277Q/E87N/F33Y/G231S/I121R/I218V/K168Q/L180W/L300P/L318F/P208A/P217A/Q86R/Q94H/R138Q/S129P/T187R/T323A/T345S/V100A/V358M); assay: biochemical; format: binding
[6] = target: A*2902 (Homo sapiens, UniProt P04439, A270S/D101N/D185E/E176V/E277Q/E87Q/F33T/G231S/H175R/I121M/I218V/I322F/K168Q/L300P/L318F/M331R/P208A/P217A/Q86L/T323A/T345S/V100A/V358M); assay: biochemical; format: binding
[7] = target: B*5301 (Homo sapiens, UniProt P01889, A329T/A93T/A95T/C349S/D201E/D98Y/E176V/E187L/E204Q/E69T/G107R/I218V/K202T/L105A/L119I/N104I/Q94N/R106L/R155S/R180L/S101N/S121R/S35A/S48A/T118I/V127L/V306I/V36M/Y140S/Y91F); assay: biochemical; details: B*5301 (nM)
[8] = target: B*5401 (Homo sapiens, UniProt P01889, A329T/C349S/D138N/D201E/E176V/E187T/E204Q/E69G/I76V/K202T/L119W/R155S/R180L/S121T/S35A/S48A/V127L/V306I/V36M/Y140L); assay: biochemical
[9] = target: A*3002 (Homo sapiens, UniProt P04439, D101N/D140H/D185E/E176R/F33S/G80R/H175R/K168Q/Q94H/R138E/R41S/V100E); assay: biochemical; format: binding

| Compound | IC50 [4] | IC50 [5] | IC50 [6] | IC50 [9] | also measured |
| --- | --- | --- | --- | --- | --- |
| TLGIVXPI | – | – | – | – | change of binding affinity for all A2 alleles versus parent [1]: greatly increased; crossreactivity of induced CTLs with wild type sequence [2]: fully crossreactive with the wild type sequence; immunogenicity in A2/Kb transgenic mice versus wild type peptide [2]: more potent immunogen |
| E7.711088.07 (TLHEYMLDL) [Peptide E7.711088.07] | – | – | – | – | Immunogenicity Experiment 1 [2]: — (key: —: a dash indicates _Lytic Units with a geometric mean ≦0.2); A2.1 Binding [3]: 0.0070 |
| ATDLGLSY [Peptide 9012.0112] | 9.6 nM | 2810 nM | 2200 nM | – | – |
| CC[C@H](C)[C@H](NC(=O)[C@@H](NC(=O)[C@H](Cc1ccccc1)NC(=O)[C@H](CC(N)=O)NC(=O)[C@@H](NC(=O)[C@@H](NC(=O)[C@H](CS)NC(=O)[C@@H]1CCCN1C(=O)[C@@H](N)Cc1ccc(O)cc1)[C@@H](C)O)C(C)C)[C@@H](C)O)C(=O)O [15.047] | – | – | – | – | IC50 [7]: 102 nM; IC50 [8]: 89 nM |
| GTSSLPTTMNY [Peptide 9012.0194] | – | 2490 nM | 260 nM | 7.6 nM | – |
| TMDYPLWSQSY [Peptide 9012.0196] | – | 419 nM | 721 nM | 99 nM | – |
| CC(C)C[C@H](NC(=O)[C@H](CC(=O)O)NC(=O)[C@H](CCC(N)=O)NC(=O)[C@@H](N)[C@@H](C)O)C(=O)N[C@H](C(=O)N[C@@H](CCC(N)=O)C(=O)N[C@@H](CCC(=O)O)C(=O)N[C@@H](CCCCN)C(=O)N[C@@H](Cc1ccc(O)cc1)C(=O)O)C(C)C [Peptide 83.0099] | 91 nM | – | > 20000 nM | 2100 nM | – |
| E7.85/1088.08 (GTLGIVCPI) | – | – | – | – | Immunogenicity Experiment 2 [2]: —** (key: —: a dash indicates _Lytic Units with a geometric mean ≦0.2); A2.1 Binding [3]: 0.021 |
| E6.29/1088.10 (TIHDIILECV) | – | – | – | – | Immunogenicity Experiment 1 [2]: 22.13 (3.71) Lytic Units; Immunogenicity Experiment 2 [2]: 0.4 (3.52) Lytic Units; A2.1 Binding [3]: 0.021 |
| TLGIVCPI | – | – | – | – | CTL response in HLA-A2.1 transgenic mice [2]: most immunogenic; also recorded: strongest epitope |
| CC[C@H](C)[C@H](NC(=O)[C@@H](NC(=O)[C@@H](NC(=O)[C@@H](N)CS)[C@@H](C)O)[C@@H](C)O)C(=O)N[C@@H](Cc1c[nH]cn1)C(=O)N[C@@H](Cc1ccc(O)cc1)C(=O)N[C@@H](CC(N)=O)C(=O)N[C@@H](Cc1ccc(O)cc1)C(=O)O [Peptide 9012.0113] | 3480 nM | 893 nM | 3120 nM | – | – |
| ETVPISHLY [Peptide 9012.0132] | 234 nM | 0.35 nM | 869 nM | 2.2 nM | – |
| ATSPAFDNLYY [Peptide 9012.0188] | 4.9 nM | 41 nM | 9.4 nM | 0.9 nM | – |
| YVMAGVGSPY [Peptide 9012.0152] | 122 nM | 1.7 nM | 3.4 nM | 12 nM | – |
| DMDDLVDAEEY [Peptide 9012.0184] | 428 nM | 5660 nM | > 20000 nM | 18000 nM | – |
| FTQENYLEY [Peptide 9012.0137] | 13 nM | 8 nM | 23 nM | 99 nM | – |
| CC[C@H](C)[C@H](NC(=O)[C@H](Cc1ccc(O)cc1)NC(=O)[C@H](CC(C)C)NC(=O)[C@H](Cc1c[nH]cn1)NC(=O)CNC(=O)[C@@H](NC(=O)[C@@H]1CCCN1C(=O)[C@@H](N)CC(=O)O)[C@@H](C)CC)C(=O)N[C@@H](Cc1ccccc1)C(=O)N[C@@H](C)C(=O)O [16.201] | – | – | – | – | IC50 [7]: 20700 nM; IC50 [8]: 359 nM |
| NTDRHSVVVPY [Peptide 9012.0198] | – | 4610 nM | 1720 nM | 9690 nM | – |
| FTTCLGLSY [Peptide 9012.0136] | 15 nM | 1.3 nM | 2.2 nM | 1300 nM | – |
| ITSKASEY [Peptide 9012.0108] | 3290 nM | 3160 nM | 15200 nM | 165 nM | – |
| CC[C@H](C)[C@H](NC(=O)[C@@H]1CCCN1C(=O)[C@@H](N)CCCCN)C(=O)N[C@H](C(=O)N[C@@H](CCC(N)=O)C(=O)N[C@@H](Cc1ccc(O)cc1)C(=O)N[C@@H](CC(=O)O)C(=O)N[C@@H](CC(N)=O)C(=O)N[C@@H](Cc1ccccc1)C(=O)O)C(C)C [15.185] | – | – | – | – | IC50 [7]: 2040 nM |
| GTDVRAMAIY [Peptide 9012.0156] | – | 965 nM | – | 1.4 nM | – |
